ChEMBL document CHEMBL1201861, “Genomics of Drug Sensitity in Cancer screening data, Wellcome Trust Sanger Institute”
pIC50: −log10 of the molar value.

Columns and labels:
[1] = test system: LP-1; experiment: cells; format: functional, cell-based; details: Homo sapiens;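 also: growth inhibition of human LP-1 cells, with the read-out taken from a cell viability assay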
Description: SANGER: Inhibition of human LP-1 cell growth in a cell viability assay.

[2] = test system: NCI-H1703; experiment: cells; format: functional, cell-based, Homo sapiens; details: Homo sapiens, NCI-H1703;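 also: growth inhibition of NCI-H1703 cells, read out via a cell viability assay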
Description: SANGER: Inhibition of human NCI-H1703 cell growth in a cell viability assay.

[3] = test system: HCT-15; experiment: cells; format: functional, cell-based, Homo sapiens; details: Homo sapiens, HCT-15;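 also: cell viability readout, IC50 reflecting suppression of HCT-15 cell growth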
Description: SANGER: Inhibition of human HCT-15 cell growth in a cell viability assay.

[4] = test system: GDM-1; experiment: cells; format: functional, cell-based; details: Homo sapiens;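 also: cell viability readout used to measure growth inhibition of human GDM-1 cells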
Description: SANGER: Inhibition of human GDM-1 cell growth in a cell viability assay.

[5] = test system: MDA-MB-134-VI; experiment: cells; format: functional, cell-based; details: Homo sapiens
Description: SANGER: Inhibition of human MDA-MB-134-VI cell growth in a cell viability assay.

[6] = test system: NCI-H1618; experiment: cells; format: functional, cell-based; details: Homo sapiens;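 also: growth inhibition of human NCI-H1618 cells, measured by a cell viability assay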
Description: SANGER: Inhibition of human NCI-H1618 cell growth in a cell viability assay.

[7] = test system: MC-CAR; experiment: cells; format: functional, cell-based; details: Homo sapiens;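 also: growth inhibition of the human MC-CAR cell line, read out by a cell viability assay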
Description: SANGER: Inhibition of human MC-CAR cell growth in a cell viability assay.

[8] = test system: NCI-H838; experiment: cells; format: functional, cell-based; details: Homo sapiens;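 also: growth inhibition of human NCI-H838 cells, read out by a cell viability assay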
Description: SANGER: Inhibition of human NCI-H838 cell growth in a cell viability assay.

[9] = test system: TT; experiment: cells; format: functional, cell-based; details: Homo sapiens
Description: SANGER: Inhibition of human TT cell growth in a cell viability assay.

[10] = test system: ST486; experiment: SANGER: Inhibition of human ST486 cell growth in a cell viability assay.; format: functional, cell-based
[11] = test system: MFE-296; experiment: SANGER: Inhibition of human MFE-296 cell growth in a cell viability assay.; format: functional, cell-based
[12] = test system: MEL-JUSO; experiment: cells; format: functional, cell-based, Homo sapiens; details: Homo sapiens, MEL-JUSO;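 also: growth inhibition of human MEL-JUSO cells, read out with a cell viability assay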
Description: SANGER: Inhibition of human MEL-JUSO cell growth in a cell viability assay.

[13] = test system: Raji; experiment: cells; format: functional, cell-based; details: Homo sapiens;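 also: cell viability assay measuring inhibition of Raji cell growth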
Description: SANGER: Inhibition of human Raji cell growth in a cell viability assay.

[14] = test system: SK-CO-1; experiment: cells; format: functional, cell-based; details: Homo sapiens;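 also: growth inhibition of SK-CO-1 cells, determined by a viability readout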
Description: SANGER: Inhibition of human SK-CO-1 cell growth in a cell viability assay.

[15] = test system: CCF-STTG1; experiment: cells; format: functional, cell-based; details: Homo sapiens;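 also: growth inhibition of human CCF-STTG1 cells, determined with a cell viability read-out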
Description: SANGER: Inhibition of human CCF-STTG1 cell growth in a cell viability assay.

[16] = test system: BL-70; experiment: SANGER: Inhibition of human BL-70 cell growth in a cell viability assay.; format: functional, cell-based
[17] = test system: RL; experiment: cells; format: functional, cell-based; details: Homo sapiens
Description: SANGER: Inhibition of human RL cell growth in a cell viability assay.

[18] = test system: IPC-298; experiment: SANGER: Inhibition of human IPC-298 cell growth in a cell viability assay.; format: functional, cell-based
[19] = test system: YT; experiment: cells; format: functional, cell-based; details: Homo sapiens
Description: SANGER: Inhibition of human YT cell growth in a cell viability assay.

[20] = test system: PLC-PRF-5; experiment: cells; format: functional, cell-based; details: Homo sapiens;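 also: growth inhibition of human PLC-PRF-5 cells, read out with a viability assay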
Description: SANGER: Inhibition of human PLC-PRF-5 cell growth in a cell viability assay.

[21] = test system: RT-4; experiment: SANGER: Inhibition of human RT4 cell growth in a cell viability assay.; format: functional, cell-based; details: Homo sapiens, RT-4
[22] = test system: HT55; experiment: cells; format: functional, cell-based, Homo sapiens; details: Homo sapiens, HT55;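 also: cell viability readout measuring growth inhibition of human HT55 cells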
Description: SANGER: Inhibition of human HT55 cell growth in a cell viability assay.

[23] = test system: BOKU; experiment: cells; format: functional, cell-based; details: Homo sapiens;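 also: growth inhibition of the human BOKU cell line, read out by a cell viability assay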
Description: SANGER: Inhibition of human BOKU cell growth in a cell viability assay.

[24] = test system: SNU-475; experiment: cells; format: functional, cell-based; details: Homo sapiens
Description: SANGER: Inhibition of human SNU-475 cell growth in a cell viability assay.

[25] = test system: TUR; experiment: cells; format: functional, cell-based; details: Homo sapiens;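 also: growth inhibition of human TUR cells, read out with a cell viability assay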
Description: SANGER: Inhibition of human TUR cell growth in a cell viability assay.

[26] = test system: KMS-12-PE; experiment: cells; format: functional, cell-based; details: Homo sapiens;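 also: growth inhibition of human KMS-12-PE cells, measured with a cell viability assay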
Description: SANGER: Inhibition of human KMS-12-PE cell growth in a cell viability assay.

[27] = test system: DV-90; experiment: cells; format: functional, cell-based; details: Homo sapiens;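 also: Read-out is a viability assay, with IC50 reflecting the drop in DV-90 cell growth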
Description: SANGER: Inhibition of human DV-90 cell growth in a cell viability assay.

[28] = test system: HCC1143; experiment: cells; format: functional, cell-based; details: Homo sapiens;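 also: growth inhibition of human HCC1143 cells, read out with a cell viability assay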
Description: SANGER: Inhibition of human HCC1143 cell growth in a cell viability assay.

[29] = test system: DG-75; experiment: cells; format: functional, cell-based; details: Homo sapiens;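 also: growth inhibition of DG-75 cells, read out with a cell viability assay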
Description: SANGER: Inhibition of human DG-75 cell growth in a cell viability assay.

[30] = test system: EVSA-T; experiment: cells; format: functional, cell-based, Homo sapiens; details: Homo sapiens, EVSA-T;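 also: growth inhibition of EVSA-T cells, read out with a cell viability assay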
Description: SANGER: Inhibition of human EVSA-T cell growth in a cell viability assay.

[31] = test system: LC4-1; experiment: cells; format: functional, cell-based; details: Homo sapiens;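 also: growth inhibition of LC4-1 cells, read out with a cell viability assay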
Description: SANGER: Inhibition of human LC4-1 cell growth in a cell viability assay.

[32] = test system: EW-7; experiment: SANGER: Inhibition of human EW-7 cell growth in a cell viability assay.; format: functional, cell-based; details: Homo sapiens, EW-7
[33] = test system: NCI-H1734; experiment: cells; format: functional, cell-based; details: Homo sapiens;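 also: growth inhibition of human NCI-H1734 cells, read out with a cell viability assay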
Description: SANGER: Inhibition of human NCI-H1734 cell growth in a cell viability assay.

[34] = test system: SNG-M; experiment: cells; format: functional, cell-based; details: Homo sapiens
Description: SANGER: Inhibition of human SNG-M cell growth in a cell viability assay.

[35] = test system: G-361; experiment: cells; format: functional, cell-based, Homo sapiens; details: Homo sapiens, G-361
[36] = test system: NCI-H2081; experiment: cells; format: functional, cell-based; details: Homo sapiens;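 also: growth inhibition of human NCI-H2081 cells, read out with a cell viability assay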
Description: SANGER: Inhibition of human NCI-H2081 cell growth in a cell viability assay.

[37] = test system: Caov-3 cell line; experiment: cells; format: functional, cell-based; details: Homo sapiens;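 also: cell growth inhibition read out by a viability assay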
Description: SANGER: Inhibition of human Caov-3 cell growth in a cell viability assay.

[38] = test system: NCI-H460; experiment: cells; format: functional, cell-based, Homo sapiens; details: Homo sapiens, NCI-H460;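 also: cell viability assay scoring growth inhibition of human NCI-H460 cells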
Description: SANGER: Inhibition of human NCI-H460 cell growth in a cell viability assay.

[39] = test system: OPM-2; experiment: cells; format: functional, cell-based; details: Homo sapiens;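 also: growth of OPM-2 cells measured with a viability assay, IC50 for suppression of proliferation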
Description: SANGER: Inhibition of human OPM-2 cell growth in a cell viability assay.

[40] = test system: ECC4; experiment: cells; format: functional, cell-based; details: Homo sapiens;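 also: growth inhibition of ECC4 cells, read out with a cell viability assay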
Description: SANGER: Inhibition of human ECC4 cell growth in a cell viability assay.

[41] = test system: Daudi; experiment: cells; format: functional, cell-based; details: Homo sapiens;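 also: growth inhibition of Daudi cells, read out by a viability assay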
Description: SANGER: Inhibition of human Daudi cell growth in a cell viability assay.

[42] = test system: EHEB; experiment: cells; format: functional, cell-based; details: Homo sapiens;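 also: growth inhibition of human EHEB cells, read out with a cell viability assay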
Description: SANGER: Inhibition of human EHEB cell growth in a cell viability assay.

[43] = test system: MHH-CALL-2; experiment: cells; format: functional, cell-based; details: Homo sapiens;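 also: growth inhibition of the cell line, read out in a cell viability assay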
Description: SANGER: Inhibition of human MHH-CALL-2 cell growth in a cell viability assay.

[44] = test system: MES-SA; experiment: cells; format: functional, cell-based, Homo sapiens; details: Homo sapiens, MES-SA;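 also: growth inhibition of human MES-SA cells, read out with a cell viability assay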
Description: SANGER: Inhibition of human MES-SA cell growth in a cell viability assay.

[45] = test system: DMS-53; experiment: cells; format: functional, cell-based, Homo sapiens; details: Homo sapiens, DMS-53;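 also: cell viability assay measuring growth inhibition of human DMS-53 cells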
Description: SANGER: Inhibition of human DMS-53 cell growth in a cell viability assay.

Q: How did the pIC50 [1] turn out when `Cc1ccc(Nc2nccc(N(C)c3ccc4c(C)n(C)nc4c3)n2)cc1S(N)(=O)=O` [PAZOPANIB] was run?
A: The pIC50 was less than 5.10.

Q: What about the pIC50 [2] of the same molecule?
A: The pIC50 was less than 5.10.

Q: And the pIC50 [3]?
A: Its pIC50 is less than 5.10.

Q: And the pIC50 [4]?
A: Its pIC50 is 6.98.

Q: And the pIC50 [5]?
A: The pIC50 was less than 5.10.

Q: What about the pIC50 [6] of the same molecule?
A: The pIC50 was less than 5.10.

Q: And the pIC50 [7]?
A: Its pIC50 is less than 5.10.

Q: And the pIC50 [8]?
A: Its pIC50 is less than 5.10.

Q: What about the pIC50 [9] of the same molecule?
A: The pIC50 was 5.25.

Q: What about the pIC50 [10] of the same molecule?
A: Its pIC50 is less than 5.10.

Q: And the pIC50 [11]?
A: Its pIC50 is 6.23.

Q: And the pIC50 [12]?
A: Its pIC50 is less than 5.10.

Q: What about the pIC50 [13] of the same molecule?
A: The pIC50 was less than 5.10.

Q: And the pIC50 [14]?
A: Its pIC50 is less than 5.10.

Q: And the pIC50 [15]?
A: The pIC50 was 5.98.

Q: And the pIC50 [16]?
A: The pIC50 was less than 5.10.

Q: And the pIC50 [17]?
A: Its pIC50 is less than 5.10.

Q: What about the pIC50 [18] of the same molecule?
A: Its pIC50 is less than 5.10.

Q: What about the pIC50 [19] of the same molecule?
A: Its pIC50 is less than 5.10.

Q: What about the pIC50 [20] of the same molecule?
A: Its pIC50 is less than 5.10.

Q: What about the pIC50 [21] of the same molecule?
A: The pIC50 was less than 5.10.

Q: And the pIC50 [22]?
A: The pIC50 was 6.01.

Q: And the pIC50 [23]?
A: The pIC50 was less than 5.10.

Q: And the pIC50 [24]?
A: The pIC50 was less than 5.10.

Q: What about the pIC50 [25] of the same molecule?
A: The pIC50 was less than 5.10.

Q: What about the pIC50 [26] of the same molecule?
A: The pIC50 was less than 5.10.

Q: And the pIC50 [27]?
A: Its pIC50 is less than 5.10.

Q: And the pIC50 [28]?
A: Its pIC50 is less than 5.10.

Q: And the pIC50 [29]?
A: The pIC50 was less than 5.10.

Q: And the pIC50 [30]?
A: The pIC50 was less than 5.10.

Q: What about the pIC50 [31] of the same molecule?
A: The pIC50 was less than 5.10.

Q: What about the pIC50 [32] of the same molecule?
A: The pIC50 was less than 5.10.

Q: And the pIC50 [33]?
A: The pIC50 was less than 5.10.

Q: What about the pIC50 [34] of the same molecule?
A: Its pIC50 is 5.39.

Q: And the pIC50 [35]?
A: The pIC50 was 5.52.

Q: What about the pIC50 [36] of the same molecule?
A: Its pIC50 is less than 5.10.

Q: What about the pIC50 [37] of the same molecule?
A: The pIC50 was less than 5.10.

Q: What about the pIC50 [38] of the same molecule?
A: Its pIC50 is less than 5.10.

Q: And the pIC50 [39]?
A: The pIC50 was less than 5.10.

Q: And the pIC50 [40]?
A: Its pIC50 is less than 5.10.

Q: What about the pIC50 [41] of the same molecule?
A: Its pIC50 is 5.44.

Q: What about the pIC50 [42] of the same molecule?
A: Its pIC50 is less than 5.10.

Q: And the pIC50 [43]?
A: Its pIC50 is less than 5.10.

Q: What about the pIC50 [44] of the same molecule?
A: Its pIC50 is less than 5.10.

Q: What about the pIC50 [45] of the same molecule?
A: Its pIC50 is less than 5.10.

Q: With `C[C@]1(O)C[C@@H](c2nc(-c3ccc4ccc(-c5ccccc5)nc4c3)c3c(N)nccn32)C1` [LINSITINIB] as the molecule, how does the pIC50 [1] read?
A: Its pIC50 is 5.65.

Q: What about the pIC50 [2] of the same molecule?
A: Its pIC50 is less than 5.59.

Q: And the pIC50 [3]?
A: Its pIC50 is less than 5.59.

Q: What about the pIC50 [4] of the same molecule?
A: The pIC50 was 6.86.

Q: And the pIC50 [5]?
A: Its pIC50 is less than 5.59.

Q: What about the pIC50 [6] of the same molecule?
A: Its pIC50 is less than 5.59.

Q: What about the pIC50 [7] of the same molecule?
A: The pIC50 was less than 5.59.

Q: And the pIC50 [8]?
A: The pIC50 was less than 5.59.

Q: What about the pIC50 [9] of the same molecule?
A: Its pIC50 is less than 5.59.

Q: What about the pIC50 [10] of the same molecule?
A: The pIC50 was less than 5.59.

Q: And the pIC50 [11]?
A: Its pIC50 is less than 5.59.

Q: And the pIC50 [12]?
A: Its pIC50 is 5.94.

Q: And the pIC50 [13]?
A: Its pIC50 is less than 5.59.

Q: What about the pIC50 [14] of the same molecule?
A: The pIC50 was less than 5.59.

Q: What about the pIC50 [15] of the same molecule?
A: Its pIC50 is less than 5.59.

Q: And the pIC50 [16]?
A: Its pIC50 is less than 5.59.

Q: And the pIC50 [17]?
A: The pIC50 was less than 5.59.

Q: What about the pIC50 [18] of the same molecule?
A: The pIC50 was less than 5.59.

Q: What about the pIC50 [19] of the same molecule?
A: Its pIC50 is less than 5.59.

Q: What about the pIC50 [20] of the same molecule?
A: Its pIC50 is less than 5.59.

Q: And the pIC50 [21]?
A: The pIC50 was less than 5.59.

Q: And the pIC50 [22]?
A: Its pIC50 is less than 5.59.

Q: What about the pIC50 [23] of the same molecule?
A: The pIC50 was less than 5.59.

Q: And the pIC50 [24]?
A: The pIC50 was less than 5.59.

Q: What about the pIC50 [25] of the same molecule?
A: The pIC50 was less than 5.59.

Q: What about the pIC50 [26] of the same molecule?
A: The pIC50 was less than 5.59.

Q: What about the pIC50 [27] of the same molecule?
A: Its pIC50 is less than 5.59.

Q: What about the pIC50 [28] of the same molecule?
A: The pIC50 was 5.61.

Q: And the pIC50 [29]?
A: The pIC50 was less than 5.59.

Q: And the pIC50 [30]?
A: The pIC50 was less than 5.59.

Q: And the pIC50 [31]?
A: The pIC50 was less than 5.59.

Q: And the pIC50 [32]?
A: Its pIC50 is 6.72.

Q: And the pIC50 [33]?
A: The pIC50 was less than 5.59.

Q: What about the pIC50 [34] of the same molecule?
A: Its pIC50 is less than 5.59.

Q: What about the pIC50 [35] of the same molecule?
A: The pIC50 was less than 5.59.

Q: And the pIC50 [36]?
A: The pIC50 was less than 5.59.

Q: And the pIC50 [37]?
A: Its pIC50 is less than 5.59.

Q: What about the pIC50 [38] of the same molecule?
A: Its pIC50 is less than 5.59.

Q: What about the pIC50 [39] of the same molecule?
A: The pIC50 was 5.68.

Q: And the pIC50 [40]?
A: Its pIC50 is less than 5.59.

Q: What about the pIC50 [41] of the same molecule?
A: Its pIC50 is less than 5.59.

Q: And the pIC50 [42]?
A: The pIC50 was less than 5.59.

Q: What about the pIC50 [43] of the same molecule?
A: The pIC50 was less than 5.59.

Q: What about the pIC50 [44] of the same molecule?
A: Its pIC50 is less than 5.59.

Q: What about the pIC50 [45] of the same molecule?
A: Its pIC50 is less than 5.59.
